Common to all, as to type: cell-based, human
Experiment [1] deals with HCT-116 cells. Put plainly: Inhibition test for sphere-forming ability of cancer cells (Test Example 1), HCT-116. The settings on record: for pIC50: HCT-116 cells, concentration for 50% inhibition of cell proliferation, read-out: IC50 (μmol/L) HCT-116 (Sphere IC50 value); for inhibitory effect on the sphere-forming ability of cancer cells: Test Example 1, summary in words, cell line not given (HCT-116, HT-29, FaDu tested). Summed up: (§1)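 Sphere formation, non-adherent, serum-free: 350-800 cells/well, DMEM/F12 + 2% B27, 20 ng/mL EGF, 10 ng/mL bFGF, 5 μg/mL insulin. Compound in 0.1% DMSO final, 4 d. CellTiter-Glo luminescence; IC50 (μmol/L) for 50% inhibition of proliferation.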

Experiment [2] deals with HT-29 cells. In words: Inhibition test for sphere-forming ability of cancer cells (Test Example 1), HT-29. To be noted: concentration for 50% inhibition of cell proliferation, read-out: IC50 (μmol/L) HT-29 (Sphere IC50 value). A digest of the protocol:
as §1

The subject of experiment [3] is FaDu cells. Put plainly: Inhibition test for sphere-forming ability of cancer cells (Test Example 1), FaDu. To be noted: concentration for 50% inhibition of cell proliferation, read-out: IC50 (μmol/L) FaDu (Sphere IC50 value). A digest of the protocol:
as §1

Experiment [4] deals with HCT-116 cells. Put plainly: Inhibition test for sphere-forming ability of cancer cells in the presence of BSA (Test Example 2), HCT-116. To be noted: for pIC50: HCT-116 cells, in the presence of 5% BSA, cultured 4 days; for inhibitory effect on the sphere-forming ability of cancer cells: Test Example 2, in the presence of 5% BSA, summary in words, cell line not given (HCT-116, HT-29, FaDu tested). Summed up:
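Spheres grown 4 days in ultra-low-attachment wells, 350-800 cells/well, in DMEM/F12 with 2% B27, 20 ng/mL EGF, 10 ng/mL bFGF, 5 μg/mL insulin and 5% BSA; 0.1% DMSO final. Viable cells read by CellTiter-Glo luminescence; Sphere IC50 (μmol/L) for 50% proliferation inhibition.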

The test system of experiment [5] is HT-29 cells. In words: Inhibition test for sphere-forming ability of cancer cells in the presence of BSA (Test Example 2), HT-29. To be noted: in the presence of 5% BSA, cultured 4 days. The procedure:
(§2) Human colorectal cancer-derived HCT-116 cells, human colon-adenocarcinoma-derived HT-29 cells, and human pharyngeal cancer-derived FaDu cells were available from American Type Culture Collection (ATCC). HCT-116 cells and HT-29 cells were cultured at 37° C. under 5% CO2 using the McCoy's 5a medium containing 10% fetal bovine serum (FBS) and 1% penicillin/streptomycin, and FaDu cells were cultured at 37° C. under 5% CO2 using the MEM medium containing 10% FBS, 1% non-essential amino acid, 1% sodium pyruvate, 5% bovine serum albumin (BSA), and 1% penicillin/streptomycin. HCT-116 cells, HT-29 cells, and FaDu cells were seeded in a 384 Well Black Clear Bottom Ultra-Low Attachment Microplate (Corning Cat. No. 3827) in an amount of 350-800 cells/well using the DMEM/F12 medium containing 2% B27 supplement (GIBCO), 20 ng/mL epidermal growth factor (EGF) (peprotech), 10 ng/mL basic fibroblast growth factor (bFGF) (peprotech), 5 μg/mL insulin (Sigma), 5% bovine serum albumin (BSA), and 1% penicillin/streptomycin. Each test compound was added into each well to adjust the final concentration of DMSO to 0.1%, and the cells were cultured for 4 days. The number of viable cells in each well was then measured with CellTiter-Glo® Luminescent Cell Viability Assay (Promega) to calculate the concentration of each test compound for 50% inhibition of cell proliferation (Sphere IC50 value; μmol/L).
(§3) The experiment of Test Example 2 was performed for each compound of each Example.
(§4) The concentration of each test compound for 50% inhibition of cell proliferation (Sphere IC50 value; μmol/L) is shown in the following Table.

Experiment [6] deals with FaDu cells. Put plainly: Inhibition test for sphere-forming ability of cancer cells in the presence of BSA (Test Example 2), FaDu. The settings on record: in the presence of 5% BSA, cultured 4 days. Here is the method: as §2, §3, §4

Here are results for 16 molecules from US10898469B2, “Imidazolylamide derivative” (Sumitomo Dainippon Pharma Co., Ltd., priority 2016, dated 2021).

pIC50: −log10 of the molar value. Counter-ions that a name gives are not always drawn.

Regarding `O=C(/C=C/c1ccc(NCC(F)F)nc1)Nc1cn(Cc2cccc(Cl)c2)cn1` [Example 14, (E)-N-(1-(3-Chlorobenzyl)-1H-imidazol-4-yl)-3-(6-((2,2-difluoroethyl)amino)pyridin-3-yl)acrylamide], the pIC50 in the experiment with HCT-116 cells [1] (Homo sapiens) is 7.22; in the experiment on HT-29 cells [2] (Homo sapiens), more than 8.00; in the experiment with FaDu cells [3] (Homo sapiens) it was 7.40; in the experiment with HCT-116 cells [4] (Homo sapiens, HCT-116, 96 h), 6.44; in the experiment with HT-29 cells [5] (Homo sapiens, 96 h), 7.22; in the experiment with FaDu cells [6] (Homo sapiens, 96 h) it was 7.22. The “inhibitory effect on the sphere-forming ability of cancer cells” value (shortened to “inhibitory effect”) in the experiment on HCT-116 cells [1] and in the experiment on HCT-116 cells [4] was “particularly potent inhibitory effect” each time.

On to `COc1ccc(C(=O)Nc2cn(Cc3ccc(F)c(F)c3F)cn2)cc1OC` [Example 153], for which the pIC50 was 6.18 in the experiment on HCT-116 cells [1]; 6.14 in the experiment on HT-29 cells [2]; 6.09 in the experiment on FaDu cells [3]; 5.19 in the experiment on HCT-116 cells [4]; 5.49 in the experiment with HT-29 cells [5]; 6.18 in the experiment with FaDu cells [6].

On to `O=C(/C=C/c1cccnc1)Nc1cn(Cc2cccc(Cl)c2)cn1` [Example 41, (2E)-N-[1-(3-chlorobenzyl)-1H-imidazol-4-yl]-3-(pyridin-3-yl)prop-2-enamide], for which the pIC50 with HCT-116 cells [1] (Homo sapiens) is 6.05; in the experiment on HT-29 cells [2] (Homo sapiens) it was 6.27; with FaDu cells [3] (Homo sapiens), 6.14; in the experiment with HCT-116 cells [4] (Homo sapiens, HCT-116, 96 h), 5.24; with HT-29 cells [5] (Homo sapiens, 96 h), 5.37; in the experiment on FaDu cells [6] (Homo sapiens, 96 h), 6.23.

On to `COc1ccc(C(=O)Nc2cn(Cc3cccc(F)c3F)cn2)cc1OC` [Example 147], for which the pIC50 with HCT-116 cells [1] was 6.11; in the experiment on HT-29 cells [2], 6.08; in the experiment on FaDu cells [3], 5.51; in the experiment with HCT-116 cells [4] it was 5.17; in the experiment with HT-29 cells [5], 5.22; with FaDu cells [6], 6.04.

On to `COc1ccc(C(=O)Nc2cn(Cc3ccc(F)cc3F)cn2)cc1OC` [Example 148], for which the pIC50 in the experiment on HCT-116 cells [1] was 5.28; with HT-29 cells [2], 5.32; in the experiment on FaDu cells [3], 5.10; in the experiment on HCT-116 cells [4] it was less than 5.00; in the experiment on HT-29 cells [5], 5.17; with FaDu cells [6] it was 5.30.

Regarding `COc1ccc(/C=C/C(=O)Nc2cn(Cc3cccc(C(F)(F)F)c3)cn2)cc1OCCO` [Example 34, (2E)-3-[3-(2-hydroxyethoxy)-4-methoxyphenyl]-N-{1[3-(trifluoromethyl)benzyl]-1H-imidazol-4-yl}prop-2-enamide], the pIC50 in the experiment with HCT-116 cells [1] (Homo sapiens) was 7.05; in the experiment on HT-29 cells [2] (Homo sapiens), 7.22; in the experiment on FaDu cells [3] (Homo sapiens), 7.05; in the experiment on HCT-116 cells [4] (Homo sapiens, HCT-116, 96 h), 6.20; in the experiment with HT-29 cells [5] (Homo sapiens, 96 h), 6.24; in the experiment on FaDu cells [6] (Homo sapiens, 96 h), 7.15. Also, the “inhibitory effect” value in the experiment on HCT-116 cells [1] and in the experiment with HCT-116 cells [4] was “particularly potent inhibitory effect” in each case.

As to `COc1ccc(C(=O)Nc2cn(Cc3cc(F)c(F)c(F)c3)cn2)cc1OC` [Example 236, 3,4-dimethoxy-N-[1-(3,4,5-trifluorobenzyl)-1H-imidazol-4-yl]benzamide], the pIC50 in the experiment on HCT-116 cells [1] (Homo sapiens) was 7.22; with HT-29 cells [2] (Homo sapiens), 7.30; in the experiment on FaDu cells [3] (Homo sapiens) it was 7.30; in the experiment with HCT-116 cells [4] (Homo sapiens, HCT-116, 96 h) it was 6.44; with HT-29 cells [5] (Homo sapiens, 96 h) it was 7.22; in the experiment on FaDu cells [6] (Homo sapiens, 96 h), 7.40. For the same molecule, the “inhibitory effect” value with HCT-116 cells [1] and in the experiment with HCT-116 cells [4] was “particularly potent inhibitory effect” throughout.

As for `COc1ccc(C(=O)Nc2cn(Cc3cc(F)cc(F)c3)cn2)cc1OC` [Example 152, 3,4-dimethoxy-N-[1-(3,5-difluorobenzyl)-1H-imidazol-4-yl]benzamide], the pIC50 in the experiment on HCT-116 cells [1] (Homo sapiens) is 7.05; in the experiment on HT-29 cells [2] (Homo sapiens), 7.05; with FaDu cells [3] (Homo sapiens) it was 6.38; with HCT-116 cells [4] (Homo sapiens, HCT-116, 96 h), 6.24; in the experiment with HT-29 cells [5] (Homo sapiens, 96 h) it was 6.20; in the experiment on FaDu cells [6] (Homo sapiens, 96 h), 6.82. The “inhibitory effect” value in the experiment on HCT-116 cells [1] was “particularly potent inhibitory effect”.

Turning to `Cc1cccc(NC(=O)c2cn(Cc3cccc(Cl)c3)cn2)n1` [Example 258], the pIC50 with HCT-116 cells [1] is 6.11; in the experiment on HT-29 cells [2] it was 6.15; in the experiment with FaDu cells [3], 6.15; in the experiment on HCT-116 cells [4] it was 5.04; in the experiment on HT-29 cells [5], 5.24; with FaDu cells [6], 5.28.

With `CNc1ccc(/C=C/C(=O)Nc2cn(Cc3cccc(C(F)(F)F)c3)cn2)cn1` [Example 17], the pIC50 is 7.10 in the experiment with HCT-116 cells [1]; 7.40 in the experiment on HT-29 cells [2]; 7.10 with FaDu cells [3]; 6.19 in the experiment with HCT-116 cells [4]; 6.46 in the experiment with HT-29 cells [5]; 7.30 in the experiment with FaDu cells [6]. Further, the “inhibitory effect” value in the experiment with HCT-116 cells [1] and in the experiment on HCT-116 cells [4] was “particularly potent inhibitory effect” throughout.

On to `O=C(/C=C/c1ccc(F)c(OCCO)c1)Nc1cn(Cc2cccc(C(F)(F)F)c2)cn1` [Example 39, (E)-3-(4-Fluoro-3-(2-hydroxyethoxy)phenyl)-N-(1-(3-(trifluoromethyl)benzyl)-1H-imidazol-4-yl)acrylamide Hydrochloride], for which the pIC50 was 6.38 in the experiment on HCT-116 cells [1] (Homo sapiens); 6.35 with HT-29 cells [2] (Homo sapiens); 7.15 in the experiment with FaDu cells [3] (Homo sapiens); 5.16 with HCT-116 cells [4] (Homo sapiens, HCT-116, 96 h); 5.57 in the experiment with HT-29 cells [5] (Homo sapiens, 96 h); 6.24 with FaDu cells [6] (Homo sapiens, 96 h).

Regarding `COc1ccc(C(=O)Nc2cn(Cc3cccc(Cl)c3)cn2)cc1OC` [Example 141, N-[1-(3-chlorobenzyl)-1H-imidazol-4-yl]-3,4-dimethoxybenzamide], the pIC50 was 6.20 in the experiment with HCT-116 cells [1] (Homo sapiens); 6.28 in the experiment on HT-29 cells [2] (Homo sapiens); 6.07 in the experiment with FaDu cells [3] (Homo sapiens); 5.31 in the experiment with HCT-116 cells [4] (Homo sapiens, HCT-116, 96 h); 6.19 in the experiment with HT-29 cells [5] (Homo sapiens, 96 h); 6.26 with FaDu cells [6] (Homo sapiens, 96 h).

For the molecule `O=C(/C=C/c1ccc(F)c(OCCO)c1)Nc1cn(Cc2cccc(Cl)c2)cn1` [Example 40], the pIC50 was 6.32 in the experiment with HCT-116 cells [1] (Homo sapiens); 6.74 in the experiment with HT-29 cells [2] (Homo sapiens); 7.30 in the experiment with FaDu cells [3] (Homo sapiens); 5.13 with HCT-116 cells [4] (Homo sapiens, HCT-116, 96 h); 5.48 with HT-29 cells [5] (Homo sapiens, 96 h); 6.24 with FaDu cells [6] (Homo sapiens, 96 h).

`COc1ccc(C(=O)Nc2cn(Cc3c(F)ccc(F)c3F)cn2)cc1OC` [Example 155]: the pIC50 is 5.52 with HCT-116 cells [1]; 5.18 with HT-29 cells [2]; 5.06 in the experiment on FaDu cells [3]; less than 5.00 in the experiment with HCT-116 cells [4]; less than 5.00 with HT-29 cells [5]; 5.15 in the experiment with FaDu cells [6].

Consider `COc1ccc(C(=O)Nc2cn(Cc3cc(F)cc(F)c3F)cn2)cc1OC` [Example 154], for which the pIC50 in the experiment on HCT-116 cells [1] was 6.15; in the experiment on HT-29 cells [2], 6.10; in the experiment on FaDu cells [3] it was 6.06; in the experiment on HCT-116 cells [4], less than 5.00; with HT-29 cells [5] it was 6.05; in the experiment with FaDu cells [6] it was 6.22.

On to `Cl.O=C(/C=C/c1ccc(F)c(O)c1)Nc1cn(Cc2cccc(C(F)(F)F)c2)cn1` [Example 37, (E)-3-(4-Fluoro-3-hydroxyphenyl)-N-(1-(3-(trifluoromethyl)benzyl)-1H-imidazol-4-yl)acrylamide Hydrochloride], for which the pIC50 in the experiment on HCT-116 cells [1] (Homo sapiens) is 6.60; in the experiment with HT-29 cells [2] (Homo sapiens) it was 6.03; in the experiment on FaDu cells [3] (Homo sapiens) it was more than 8.00; in the experiment on HCT-116 cells [4] (Homo sapiens, HCT-116, 96 h) it was 6.26; in the experiment with HT-29 cells [5] (Homo sapiens, 96 h) it was 7.00; with FaDu cells [6] (Homo sapiens, 96 h), more than 8.00. Moreover, the “inhibitory effect” value in the experiment with HCT-116 cells [1] and in the experiment with HCT-116 cells [4] was “particularly potent inhibitory effect” in each case.
